Measured values published in patent US12589158B2 (priority 2022, dated 2026).

test: Pharmacokinetics following single administration in SD rat; parameters: species or system SD rats; settings: in vivo, sc, 50 nmol/kg
Description: The compound is administrated to male SD rats (230-268 g, n=3) at a dose of 50.0 nmol/kg (s.c.) or 25.0 nmol/kg (i.v.). […] 30.0 μL of thawed plasma sample is taken. 150 μL of acetonitrile solution (containing 5 ng mL^−1 Verapamil, 50 ng·mL^−1 Glibenclamide, 200 ng·mL^−1 Tolbutamide and 200 ng·mL^−1 Diclofenac) are added to precipitate protein. The mixture is vortexed for 5 minutes, and centrifuged at 3700 rpm for 8 minutes. 70.0 μL of the supernatant is taken, into which 70.0 μL of 0.5% aqueous formic acid solution is added. The mixture is vortexed for 5 minutes. 15 μL of the mixture solution is sampled and injected into the LC-MS/MS to determine the drug concentration in plasma. 20.0 μL of thawed plasma sample is taken. 60 μL of acetonitrile solution (containing 5 ng mL^−1 Verapamil, 50 ng·mL^−1 Glibenclamide, 200 ng·mL^−1 Tolbutamide and 200 ng·mL^−1 Diclofenac) are added to precipitate protein. […] The mixture is vortexed for 10 minutes. 10.0 μL of the mixture solution is sampled and injected into the LC-MS/MS to determine the drug concentration in plasma. 30.0 μL of thawed plasma sample is taken. 150 μL of acetonitrile solution (containing 5 ng mL^−1 Verapamil, 50 ng mL^−1 Glibenclamide, 200 ng·mL^−1 Tolbutamide and 200 ng·mL^−1 Diclofenac) are added to precipitate protein. The mixture is vortexed for 5 minutes, and centrifuged at 3700 rpm for 8 minutes. 70.0 μL of the supernatant is taken, into which 70.0 μL of 0.5% aqueous formic acid solution is added. The mixture is vortexed for 5 minutes. 10.0 μL of the mixture solution is sampled and injected into the LC-MS/MS to determine the drug concentration in plasma.

Row | SMILES | MRT inf [h] | MRT last [h]
1 | CC[C@H](C)[C@H](NC(=O)C(C)(C)NC(=O)[C@H](Cc1ccc(O)cc1)NC(=O)[C@H](CC(=O)O)NC(=O)[C@H](CO)NC(=O)[C@@H](NC(=O)C(C)(Cc1ccccc1)NC(=O)[C@@H](NC(=O)CNC(=O)[C@H](CCC(=O)O)NC(=O)C(C)(C)NC(=O)[C@@H](N)Cc1ccc(O)cc1)[C@@H](C)O)[C@@H](C)O)C(=O)NC(C)(C)C(=O)N[C@@H](CC(C)C)C(=O)N[C@@H](CC(=O)O)C(=O)N[C@@H](CCCCN)C(=O)N[C@@H](CCC(N)=O)C(=O)N[C@@H](C)C(=O)N[C@@H](CCC(N)=O)C(=O)N[C@@H](C)C(=O)N[C@@H](CCC(=O)O)C(=O)N[C@@H](Cc1ccccc1)C(=O)N[C@H](C(=O)N[C@@H](CCCCN)C(=O)N[C@@H](Cc1c[nH]c2ccccc12)C(=O)N[C@@H](CC(C)C)C(=O)N[C@@H](CC(C)C)C(=O)N[C@@H](CCCCNC(=O)COCCOCCNC(=O)COCCOCCNC(=O)COCCOCCNC(=O)CC[C@H](NC(=O)CCCCCCCCCCCCCCCCC(=O)O)C(=O)O)C(=O)NCC(=O)NCC(=O)N1CCC[C@H]1C(=O)N[C@@H](CO)C(=O)N[C@@H](CO)C(=O)NCC(=O)N[C@@H](C)C(=O)N1CCC[C@H]1C(=O)N1CCC[C@H]1C(=O)N1CCC[C@H]1C(=O)N[C@@H](CO)C(=O)N[C@@H](CCCCN)C(N)=O)C(C)C (some centres unmarked) [P019] | 18.3 ± 2.76 | 17.1 ± 2.55
2 | CC[C@H](C)[C@H](NC(=O)C(C)(C)NC(=O)[C@H](Cc1ccc(O)cc1)NC(=O)[C@H](CC(=O)O)NC(=O)[C@H](CO)NC(=O)[C@@H](NC(=O)C(C)(Cc1ccccc1)NC(=O)[C@@H](NC(=O)CNC(=O)[C@H](CCC(=O)O)NC(=O)C(C)(C)NC(=O)[C@@H](N)Cc1ccc(O)cc1)[C@@H](C)O)[C@@H](C)O)C(=O)NC(C)(C)C(=O)N[C@@H](CC(C)C)C(=O)N[C@@H](CC(=O)O)C(=O)N[C@@H](CCCCN)C(=O)N[C@@H](CCC(N)=O)C(=O)N[C@@H](C)C(=O)N[C@@H](CCC(N)=O)C(=O)N[C@@H](C)C(=O)N[C@@H](CCC(=O)O)C(=O)N[C@@H](Cc1ccccc1)C(=O)N[C@H](C(=O)N[C@@H](CCCCN)C(=O)N[C@@H](Cc1c[nH]c2ccccc12)C(=O)N[C@@H](CC(C)C)C(=O)N[C@@H](CC(C)C)C(=O)N[C@@H](CCCCNC(=O)COCCOCCNC(=O)COCCOCCNC(=O)CC[C@H](NC(=O)CCCCCCCCCCCCCCCCC(=O)O)C(=O)O)C(=O)NCC(=O)NCC(=O)N1CCC[C@H]1C(=O)N[C@@H](CO)C(=O)N[C@@H](CO)C(=O)NCC(=O)N[C@@H](C)C(=O)N1CCC[C@H]1C(=O)N1CCC[C@H]1C(=O)N1CCC[C@H]1C(=O)N[C@@H](CO)C(=O)N[C@@H](CCCCN)C(N)=O)C(C)C (some centres unmarked) [P008] | 25.4 | 21 ± 1.85
3 | CC[C@H](C)[C@H](NC(=O)C(C)(C)NC(=O)[C@H](Cc1ccc(O)cc1)NC(=O)[C@H](CC(=O)O)NC(=O)[C@H](CO)NC(=O)[C@@H](NC(=O)C(C)(Cc1ccccc1)NC(=O)[C@@H](NC(=O)CNC(=O)[C@H](CCC(=O)O)NC(=O)C(C)(C)NC(=O)[C@@H](N)Cc1ccc(O)cc1)[C@@H](C)O)[C@@H](C)O)C(=O)NC(C)(C)C(=O)N[C@@H](CC(C)C)C(=O)N[C@@H](CC(=O)O)C(=O)N[C@@H](CCCCN)C(=O)N[C@@H](CCC(N)=O)C(=O)N[C@@H](C)C(=O)N[C@@H](CCC(N)=O)C(=O)N[C@@H](C)C(=O)N[C@@H](CCC(=O)O)C(=O)N[C@@H](Cc1ccccc1)C(=O)N[C@H](C(=O)N[C@@H](CCCCNC(=O)COCCOCCNC(=O)COCCOCCNC(=O)CC[C@H](NC(=O)CCCCCCCCCCCCCCCCCCC(=O)O)C(=O)O)C(=O)N[C@@H](Cc1c[nH]c2ccccc12)C(=O)N[C@@H](CC(C)C)C(=O)N[C@@H](CC(C)C)C(=O)N[C@@H](CCCCN)C(=O)NCC(=O)NCC(=O)N1CCC[C@H]1C(=O)N[C@@H](CO)C(=O)N[C@@H](CO)C(=O)NCC(=O)N[C@@H](C)C(=O)N1CCC[C@H]1C(=O)N1CCC[C@H]1C(=O)N1CCC[C@H]1C(=O)N[C@@H](CO)C(=O)N[C@@H](CCCCN)C(N)=O)C(C)C (some centres unmarked) [P013] | 29.9 ± 1.33 | 26.2 ± 0.7
4 | CC[C@H](C)[C@H](NC(=O)C(C)(C)NC(=O)[C@H](Cc1ccc(O)cc1)NC(=O)[C@H](CC(=O)O)NC(=O)[C@H](CO)NC(=O)[C@@H](NC(=O)C(C)(Cc1ccccc1)NC(=O)[C@@H](NC(=O)CNC(=O)[C@H](CCC(=O)O)NC(=O)C(C)(C)NC(=O)[C@@H](N)Cc1ccc(O)cc1)[C@@H](C)O)[C@@H](C)O)C(=O)NC(C)(C)C(=O)N[C@@H](CC(C)C)C(=O)N[C@@H](CC(=O)O)C(=O)N[C@@H](CCCCN)C(=O)N[C@@H](CCC(N)=O)C(=O)N[C@@H](C)C(=O)N[C@@H](CCC(N)=O)C(=O)N[C@@H](C)C(=O)N[C@@H](CCC(=O)O)C(=O)N[C@@H](Cc1ccccc1)C(=O)N[C@H](C(=O)N[C@@H](CCCCNC(=O)COCCOCCNC(=O)COCCOCCNC(=O)CC[C@H](NC(=O)CCCCCCCCCCCCCCCCC(=O)O)C(=O)O)C(=O)N[C@@H](Cc1c[nH]c2ccccc12)C(=O)N[C@@H](CC(C)C)C(=O)N[C@@H](CC(C)C)C(=O)N[C@@H](CCCCN)C(=O)NCC(=O)NCC(=O)N1CCC[C@H]1C(=O)N[C@@H](CO)C(=O)N[C@@H](CO)C(=O)NCC(=O)N[C@@H](C)C(=O)N1CCC[C@H]1C(=O)N1CCC[C@H]1C(=O)N1CCC[C@H]1C(=O)N[C@@H](CO)C(=O)N[C@@H](CCCCN)C(N)=O)C(C)C (some centres unmarked) [P007] | 25.7 ± 1.69 | 21.4 ± 1.87
5 | CC[C@H](C)[C@H](NC(=O)C(C)(C)NC(=O)[C@H](Cc1ccc(O)cc1)NC(=O)[C@H](CC(=O)O)NC(=O)[C@H](CO)NC(=O)[C@@H](NC(=O)C(C)(Cc1ccccc1)NC(=O)[C@@H](NC(=O)CNC(=O)[C@H](CCC(=O)O)NC(=O)C(C)(C)NC(=O)[C@@H](N)Cc1ccc(O)cc1)[C@@H](C)O)[C@@H](C)O)C(=O)NC(C)(C)C(=O)N[C@@H](CC(C)C)C(=O)N[C@@H](CC(=O)O)C(=O)N[C@@H](CCCCN)C(=O)N[C@@H](CCC(N)=O)C(=O)N[C@@H](C)C(=O)N[C@@H](CCC(N)=O)C(=O)N[C@@H](C)C(=O)N[C@@H](CCC(=O)O)C(=O)N[C@@H](Cc1ccccc1)C(=O)N[C@H](C(=O)N[C@@H](CCCCN)C(=O)N[C@@H](Cc1c[nH]c2ccccc12)C(=O)N[C@@H](CC(C)C)C(=O)N[C@@H](CC(C)C)C(=O)N[C@@H](CCCCNC(=O)COCCOCCNC(=O)COCCOCCNC(=O)CC[C@H](NC(=O)CC[C@H](NC(=O)CC[C@H](NC(=O)CCCCCCCCCCCCCCCCC(=O)O)C(=O)O)C(=O)O)C(=O)O)C(=O)NCC(=O)NCC(=O)N1CCC[C@H]1C(=O)N[C@@H](CO)C(=O)N[C@@H](CO)C(=O)NCC(=O)N[C@@H](C)C(=O)N1CCC[C@H]1C(=O)N1CCC[C@H]1C(=O)N1CCC[C@H]1C(=O)N[C@@H](CO)C(=O)N[C@@H](CCCCN)C(N)=O)C(C)C (some centres unmarked) [P018] | 33.4 ± 7 | 28.5 ± 4.45
6 | CC[C@H](C)[C@H](NC(=O)C(C)(C)NC(=O)[C@H](Cc1ccc(O)cc1)NC(=O)[C@H](CC(=O)O)NC(=O)[C@H](CO)NC(=O)[C@@H](NC(=O)C(C)(Cc1ccccc1)NC(=O)[C@@H](NC(=O)CNC(=O)[C@H](CCC(=O)O)NC(=O)C(C)(C)NC(=O)[C@@H](N)Cc1ccc(O)cc1)[C@@H](C)O)[C@@H](C)O)C(=O)NC(C)(C)C(=O)N[C@@H](CC(C)C)C(=O)N[C@@H](CC(=O)O)C(=O)N[C@@H](CCCCN)C(=O)N[C@@H](CCC(N)=O)C(=O)N[C@@H](C)C(=O)N[C@@H](CCC(N)=O)C(=O)N[C@@H](C)C(=O)N[C@@H](CCC(=O)O)C(=O)N[C@@H](Cc1ccccc1)C(=O)N[C@H](C(=O)N[C@@H](CCCCN)C(=O)N[C@@H](Cc1c[nH]c2ccccc12)C(=O)N[C@@H](CC(C)C)C(=O)N[C@@H](CC(C)C)C(=O)N[C@@H](CCCCNC(=O)COCCOCCNC(=O)COCCOCCNC(=O)CC[C@H](NC(=O)CCCCCCCCCCCCCCCCCCCCC(=O)O)C(=O)O)C(=O)NCC(=O)NCC(=O)N1CCC[C@H]1C(=O)N[C@@H](CO)C(=O)N[C@@H](CO)C(=O)NCC(=O)N[C@@H](C)C(=O)N1CCC[C@H]1C(=O)N1CCC[C@H]1C(=O)N1CCC[C@H]1C(=O)N[C@@H](CO)C(=O)N[C@@H](CCCCN)C(N)=O)C(C)C (some centres unmarked) [P017] | 36.9 ± 3.46 | 27.9 ± 2.99

test: Pharmacokinetics in cynomolgus monkeys; settings: cynomolgus monkey, in vivo, sc, 25 nmol/kg
Description: After subcutaneous or intravenous administration to cynomolgus monkeys, plasma is collected and the drug concentration in plasma is determined to illustrate the in vivo pharmacokinetic properties of the compound according to the present invention. The compound is dissolved in 1.4% PG in 8 mM Na2HPO4 Buffer (pH 7.39), and filtered through a filter membrane (PTFE, 0.45 μm) to obtain 25 and 12.5 nmol/mL solution of the compound respectively. The obtained solutions are administered to cynomolgus monkeys (4-8 kg) at a dose of 25 nmol/kg subcutaneously (s.c.) or 12.5 nmol/kg intravenously (i.v.). […] The blood samples are centrifuged at 2200 g for 10 minutes to obtain a plasma, which is stored at −90° C. to −60° C. for further analysis and assay.
70.0 μL of thawed plasma sample is taken. 70 μL of acetonitrile (containing 1 ng/ml of the internal standard) is added to precipitate protein. The mixture is vortexed for 1 minute, and centrifuged at 14000 rpm for 10 minutes. 60.0 μL of the supernatant is taken, into which 60.0 μL of 0.5% aqueous formic acid solution is added. The mixture is vortexed for 5 minutes. 10 μL of the mixture solution is sampled and injected into the LC-MS/MS to determine the drug concentration in plasma.
Based on the drug concentration in plasma of the compounds in the cynomolgus monkeys, the pharmacokinetic parameters are calculated by applying the software Winnolin 8.2 in a non-compartmental model, and the results are shown in Table 9 and Table 10 below.

Row | SMILES | MRT inf [h] | MRT last [h]
7 | CC[C@H](C)[C@H](NC(=O)C(C)(C)NC(=O)[C@H](Cc1ccc(O)cc1)NC(=O)[C@H](CC(=O)O)NC(=O)[C@H](CO)NC(=O)[C@@H](NC(=O)C(C)(Cc1ccccc1)NC(=O)[C@@H](NC(=O)CNC(=O)[C@H](CCC(=O)O)NC(=O)C(C)(C)NC(=O)[C@@H](N)Cc1ccc(O)cc1)[C@@H](C)O)[C@@H](C)O)C(=O)NC(C)(C)C(=O)N[C@@H](CC(C)C)C(=O)N[C@@H](CC(=O)O)C(=O)N[C@@H](CCCCN)C(=O)N[C@@H](CCC(N)=O)C(=O)N[C@@H](C)C(=O)N[C@@H](CCC(N)=O)C(=O)N[C@@H](C)C(=O)N[C@@H](CCC(=O)O)C(=O)N[C@@H](Cc1ccccc1)C(=O)N[C@H](C(=O)N[C@@H](CCCCN)C(=O)N[C@@H](Cc1c[nH]c2ccccc12)C(=O)N[C@@H](CC(C)C)C(=O)N[C@@H](CC(C)C)C(=O)N[C@@H](CCCCNC(=O)COCCOCCNC(=O)COCCOCCNC(=O)CC[C@H](NC(=O)CCCCCCCCCCCCCCCCCCCCC(=O)O)C(=O)O)C(=O)NCC(=O)NCC(=O)N1CCC[C@H]1C(=O)N[C@@H](CO)C(=O)N[C@@H](CO)C(=O)NCC(=O)N[C@@H](C)C(=O)N1CCC[C@H]1C(=O)N1CCC[C@H]1C(=O)N1CCC[C@H]1C(=O)N[C@@H](CO)C(=O)N[C@@H](CCCCN)C(N)=O)C(C)C (some centres unmarked) [P017] | 77.8 ± 12.2 | 76.4 ± 12.7
